Test results reported in patent publication US20250122160A1, “PROTEIN TYROSINE PHOSPHATASE INHIBITORS AND METHODS OF USE THEREOF” (Calico Life Sciences LLC, priority 0001, published 2025).

Columns and labels:
[1] = molecular target: T1, His tagged PTPN2 (TC45) protein (Homo sapiens, UniProt P17706); assay: Mobility shift assay (MSA) to determine potency of PTPN2 inhibitors; type: biochemical; details: 0.5 nM enzyme, 2 μM substrate
T1 construct: made in house
T1 sequence (P17706 with tags, fused parts or gaps isoform P17706-2): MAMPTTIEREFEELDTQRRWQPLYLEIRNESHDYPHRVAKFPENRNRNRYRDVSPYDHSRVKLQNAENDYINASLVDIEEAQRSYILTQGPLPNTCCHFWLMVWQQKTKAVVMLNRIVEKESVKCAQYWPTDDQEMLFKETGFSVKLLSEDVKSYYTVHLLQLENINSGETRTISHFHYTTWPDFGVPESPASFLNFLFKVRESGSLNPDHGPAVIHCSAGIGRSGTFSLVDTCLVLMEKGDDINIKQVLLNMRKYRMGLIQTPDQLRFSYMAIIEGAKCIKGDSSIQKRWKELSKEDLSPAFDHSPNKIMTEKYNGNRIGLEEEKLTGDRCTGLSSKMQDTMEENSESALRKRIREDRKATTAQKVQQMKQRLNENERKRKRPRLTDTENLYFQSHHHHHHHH
Outline: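 His-tagged human PTPN2 (TC45), 0.5 nM, preincubated 10 min at room temperature with compound (12-point, 1:3 dilutions) in HEPES pH 7.5 buffer with EGTA, EDTA, Tween 20 and DTT. Then 2 μM OG488-labelled phospho-insulin-receptor peptide was added for 10 min and quenched. % conversion was read by mobility shift, and IC50 came from % inhibition.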

[2] = molecular target: T2, His tagged full-length PTPN1 protein (Homo sapiens, UniProt P18031); assay: Mobility shift assay (MSA) to determine potency of PTPN1 inhibitors; type: biochemical; details: 0.5 nM enzyme, 2 μM substrate
T2 construct: made in house
T2 sequence (P18031 with tags, fused parts or gaps): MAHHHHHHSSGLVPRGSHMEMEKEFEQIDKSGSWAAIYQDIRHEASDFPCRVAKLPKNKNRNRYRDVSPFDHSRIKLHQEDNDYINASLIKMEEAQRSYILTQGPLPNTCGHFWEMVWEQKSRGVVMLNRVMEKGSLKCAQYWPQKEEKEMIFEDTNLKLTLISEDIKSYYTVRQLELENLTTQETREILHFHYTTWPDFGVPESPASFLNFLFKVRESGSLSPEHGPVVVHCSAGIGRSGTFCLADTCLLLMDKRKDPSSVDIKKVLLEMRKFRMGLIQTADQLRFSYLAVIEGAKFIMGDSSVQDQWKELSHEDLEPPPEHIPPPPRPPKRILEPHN
Outline: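 His-tagged full-length human PTPN1 (0.5 nM) preincubated with compound 10 min at room temperature in pH 7.5 HEPES buffer with EGTA, EDTA, Tween 20 and DTT. Dephosphorylation of 2 μM fluorescent phospho-insulin-receptor peptide over 10 min measured by mobility shift. IC50 from % inhibition across a 12-point, 1:3 dilution series.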

[3] = system: B16F10 mouse melanoma cells; assay: B16F10 IFNγ-induced cellular growth inhibition assay; type: cell-based; details: B16-F10, with 0.5 ng/ml IFNγ, read-out: B16F10 GI IC50
Protocol: B16F10 mouse melanoma cells (ATCC Cat #CRL-6475, Manassas, VA) were seeded at a density of 500 cells per well in a 384-well clear bottom plate (Corning Cat #3765, Corning, NY) in 25 μL total volume of DMEM+10% FBS (Sigma Cat #D6429 and Sigma Cat #F4135, St. Louis, MO). Cells were allowed to adhere overnight at 37° C.+5% CO2. On the following day, 12.5 μL of mouse IFNγ (RD systems Cat #485-MI/CF, Minneapolis, MN) was added to half of the plate (columns 13-24) at a concentration of 2 ng/ml for a final assay concentration of 0.5 ng/ml of IFNγ. Media only (12.5 μL of DMEM+10% FBS) was added to the remainder of the plate (columns 1-12). Next, compounds resuspended in DMSO (Sigma Cat #D2650) at 100 mM were diluted in semi-log dilutions in DMSO ranging from 100 mM to 0.001 mM and DMSO only controls were included. The compound/DMSO dilutions were further diluted 1:250 in DMEM+10% FBS, and 12.5 μL of these dilutions were added in triplicates to cells of both treatment arms (with and without IFNγ). Final compound concentrations ranged from 100 μM to 0.001 μM with a final DMSO concentration of 0.1%. […] Confluence over time for compound dilutions in the presence and absence of IFNγ was measured. […] At these time points, for each compound the percent growth inhibition at every compound dose level was calculated relative to the “DMSO/with IFNγ” control and used to determine the IC50.

[4] = system: MC-38 murine colon adenocarcinoma; assay: In vivo efficacy in MC38 mouse tumor model
Protocol: All experiments were conducted in compliance with AbbVie's Institutional Animal Care and Use Committee and the National Institutes of Health Guide for Care and Use of Laboratory Animals guidelines in a facility accredited by the Association for the Assessment and Accreditation of Laboratory Animal Care. C57Bl/6 female mice were obtained from Charles River (Wilmington, MA). The mice were group-housed 10 per cage. Food and water were available ad libitum. Animals were acclimated to the animal facilities for a period of at least one week prior to commencement of experiments. Animals were tested in the light phase of a 12-hour light:12-hour dark schedule (lights on 0600 hours).
Cells were grown to passage 3 in vitro. A total of 1×10^5 viable MC-38 cells were inoculated subcutaneously into the right flank of female C57Bl/6 mice (7-12 weeks old) on Day 0. […] Tumor volume was calculated three times weekly. Measurements of the length (L) and width (W) of the tumor were taken via electronic caliper and the volume was calculated according to the following equation: V=L×W^2/2 using Study Director Version 3.1.399.22 (Studylog Systems, Inc, CA, USA). […] Tumor growth inhibition (TGI) was calculated as TGI=1−(Mean TVTimepoint(Treatment)/Mean TVTimepoint(Vehicle)) for each timepoint that tumor volumes were measured. […]

pSTAT5 in CD3+ T cells = assay: pSTAT5 flow cytometry assay in mouse whole blood; type: in vivo; details: day 8 of dosing
Protocol: Whole blood was drawn into EDTA powder coated tubes by cardiac puncture from mice on day 8 of dosing with Compound 118 (2 hours after the 16th dose). 90 μL of whole blood were stimulated with 10 μL of murine IL-2 to achieve a final concentration of 100 ng IL-2/mL (R&D Systems. Minneapolis, MN, cat #402-ML) for 20 minutes at 37° C. 5% CO2. After stimulation. 1.8 mL of prewarmed BD Phosflow Lyse/Fix Buffer (BD Biosciences. San Jose. CA) was added for 20 minutes at 37° C. Cells were washed twice in FACS buffer (Dulbecco's PBS with 0.2% BSA) and incubated for 30 minutes on ice in cold Perm Buffer III (BD Biosciences. San Jose. CA). Cells were washed with FACS buffer and resuspended in 50 μL of FACS buffer with antibodies and stained for 3 hours at room temperature with gentle shaking. […] After staining, cells were washed twice with FACS buffer, and the samples were acquired on a BD LSRFortessa™ X20 flow cytometers (BD Biosciences. San Jose, CA) and analyzed with FLowJo V10 software (FlowJo, Ashland, OR). The mean fluorescence intensity (MFI) of pSTAT5 as a measure of the amount of phosphorylated STAT5 in the CD3+ T cell population from vehicle or Compound 118 treated animals was reported.

[5] = system: Granzyme B+ cells within CD8+ T cells; assay: Granzyme B staining of CD8 T cells flow cytometry assay in mouse spleen; type: in vivo; details: day 8 of dosing
Protocol: Mice were sacrificed on day 8 of dosing with Compound 118 (2 hours after the 16th dose) and spleens were excised. Spleens were dissociated with a gentleMACS dissociator (Miltenyi Biotec. Bergisch Gladbach. Germany), red blood cells lysed, and single cell suspensions were prepared. Splenocytes were stained with Zombie UV™ Fixable Viability kit (Biolegend. San Diego, CA) diluted in Dulbecco's PBS for 10 minutes at room temperature to exclude dead cells followed by staining for surface markers for 45 minutes on ice using the following flow cytometry antibodies diluted in autoMACS Running Buffer (Miltenyi Biotec. Bergisch Gladbach, Germany); Brilliant Violet 510)-labeled anti-CD45. Brilliant Ultraviolet 395-labeled anti-CD3. Brilliant Violet 786-labeled anti-CD4. APC/Cy7-labeled anti-CD8. Cells were washed twice with autoMACS Running Buffer, permeabilized with Fixation/Permeabilization buffer (FoxP3/Transcription Factor Staining Buffer Set; eBioscience) and stained intracellularly with PE-labeled anti-Granzyme B antibody diluted in Permeabilization buffer (FoxP3/Transcription Factor Staining Buffer Set; eBioscience, San Diego, CA) for 1 hour on ice. After staining, cells were washed twice with autoMACS Running Buffer, and the samples were acquired on a BD LSRFortessa™ X20 flow cytometers (BD Biosciences, San Jose, CA) and analyzed with FLowJo V10 software (FlowJo, Ashland, OR). […]

IP10 = assay: Cytokine measurement in mouse plasma (IP10); type: in vivo; details: day 8 of dosing
Protocol: Whole blood was drawn into EDTA powder coated tubes by cardiac puncture from mice on day 8 of dosing with Compound 118 (2 hours after the 16th dose) and plasma was prepared by centrifugation. Cytokines in plasma were measured using the Th1/Th2 Cytokine & Chemokine 20-Plex Mouse ProcartaPlex™ Panel 1 (Invitrogen, Carlsbad, CA). IP10 levels (pg/mL) in vehicle or Compound 118 treated animals were reported.

IC50 [3]	Compound	IC50 [1]	IC50 [2]	tolerability ([4]; 10 mg/kg/dose oral BID for 21 days)	tumor response observed ([4]; within 7-10 days of treatment)	pSTAT5 levels in whole blood T cells, fold higher than vehicle control (pSTAT5 in CD3+ T cells)	frequency of granzyme B producing cells within CD8+ T population in spleen, fold higher than vehicle control [5]	IP10 levels in plasma, fold higher than vehicle control (IP10)
1000 to 10000 nM	CC(C)(C)O[C@H]1C[C@@H](CCNC2CCc3cc(O)c(N4CC(=O)NS4(=O)=O)c(F)c3C2)C1 (stereo partly drawn) [Compound 234]	10 to 100 nM	1 to 10 nM	–	–	–	–	–
–	CC(C)CCN[C@@H]1CCc2cc(O)c(N3CC(=O)NS3(=O)=O)c(F)c2C1 (single isomer, unassigned) [Compound 118]	–	1 to 10 nM	well tolerated, without obvious adverse health events	apparent tumor stasis and shrinkage	1.6 fold	3.9 fold	1.7 fold
